This assay has as its system ATF6. Kind of assay: ERSE ATF6-luciferase reporter assay (thapsigargin-induced ER stress). It is filed as cell-based, human. As to the method:
Human bone osteosarcoma (U2-OS) cells were obtained from the American Type Culture Collection (ATCC HTB-96, ATCC Manassas, VA) and were cultured with growing medium containing Dulbecco's Modified Eagle's Medium (DMEM) (Cat. No.:SH30023.02, HyClone) supplemented with fetal bovine serum (FBS) 10% (Cat. No.: 16000044, Gibco) and 1% penicillin-streptomycin antibiotic cocktail (Cat. No.: SV30010, Hyclone).
Cignal Lenti ATF6 luc reporter (Qiagen #CLS-6031L) was used to produce a stable cell line in U2-OS cells. […] The number of response elements as well as the intervening sequence between response elements has been experimentally optimized to maximize the signal to noise ratio.
Compounds were prepared as 10 mM stock solutions and stored at −80° C.
U2-OS ATF6 luc reporter cells were thawed 3-4 days and split once prior to assays. […] At the day of experiment, cells were pre-treated for 30 min with 50 μL growing medium containing either vehicle (dimethyl sulfoxide (DMSO)) (Cat. No.: D2650, Sigma-Aldrich) or 1 μM test compound. After the pre-incubation time, 50 μL of a solution containing 0.2 μM thapsigargin (Tg)(an ER stress inducer) was added to respective wells. This Tg solution also contained vehicle or test compounds at 1 μM. The final concentration of DMSO in each well was kept at 0.3%. Plates were incubated for 8 hr in humidified chambers.
Finally, after 8 hr, plates were cooled to room temperature for 10 min prior to luciferase assays. Luciferase reactions were performed using Luciferase Assay System (Cat. No.: E4550, Promega). Briefly, each well was washed with 100 μl of PBS1X and then 20 μl of lysis reagent were added into each well. Plates were shaken for 10 min, then 50 μl of Luciferase Assay Reagent were added to each well and luminescence was read with an integration time of 1 s and a gain of 110 in a Synergy 4 Microplate reader.
For the assessment of the half-maximal inhibitory concentration (IC50) for selected compounds, dose-response assays were performed. Compounds were serially diluted using DMSO starting at 30 μM until 1 nM. The assays were run as described above.

Setting [1] is: Homo sapiens, U2OS, 8 h, 1 μM test compound, thapsigargin-induced ER stress, U2-OS ATF6 luc reporter cells, 8 hr, read-out: Inh. ATF6-Luc @ 1 μM [%].
[2] abbreviates: Homo sapiens, U2OS, dose-response 30 μM to 1 nM, thapsigargin-induced ER stress, U2-OS ATF6 luc reporter cells, read-out: IC50 ATF6-Luc reporter.
The mark [3] stands for this setting: Homo sapiens, U2OS, 8 h, read-out: Inh. ATF6-Luc @ 1 μM [%], 1 μM test compound, thapsigargin-induced ER stress, U2-OS ATF6 luc reporter cells, 8 hr.
Setting [4] is: Homo sapiens, U2OS, read-out: IC50 ATF6-Luc reporter [μM], dose-response 30 μM to 1 nM, thapsigargin-induced ER stress, U2-OS ATF6 luc reporter cells.

Read-outs that look alike come from different tables or passages of the source.

Usually IC50 stands for the concentration that gives 50% inhibition.

`CC(c1ccc(C(F)(F)F)cc1C(F)(F)F)n1cc(NC(=O)c2cc(-c3ccco3)on2)cn1` (single isomer, unassigned) [“Enantiomer B” of Example S6, N-(1-(1-(2,4-bis(trifluoromethyl)phenyl)ethyl)-1H-pyrazol-4-yl)-5-(furan-2-yl)isoxazole-3-carboxamide]: the IC50 is over 10 µM. The “Inh. ATF6-Luc @ 1 μM [%]” value (8 h, 1 µM) was “+ (+ refers to <25% inhibition at 1 μM)”.

Regarding `CC(c1ccc(C(F)(F)F)cc1C(F)(F)F)n1cc(NC(=O)c2cc(-c3ccccn3)on2)cn1` (single isomer, unassigned) [“Enantiomer B” of Example S5, N-(1-(1-(2,4-bis(trifluoromethyl)phenyl)ethyl)-1H-pyrazol-4-yl)-5-(pyridin-2-yl)isoxazole-3-carboxamide], the IC50 is over 10 µM. Also, the “Inh. ATF6-Luc @ 1 μM [%]” value (8 h, 1 µM) is reported as “+ (+ refers to <25% inhibition at 1 μM)”.

With `Cc1c(NC(=O)/C=C/c2ccco2)cnn1Cc1ccc(C(F)(F)F)cc1C(F)(F)F` [Compound 95, (E)—N-(1-(2,4-bis(trifluoromethyl)benzyl)-5-methyl-1H-pyrazol-4-yl)-3-(furan-2-yl)acrylamide], the inhibition at 1 µM under setting [1] is under 25%. For the same compound, the IC50 under setting [2] is over 10 µM.

Turning to `COc1ccccc1-c1cc(C(=O)Nc2cnn([C@@H](C)c3ccc(C(F)(F)F)cc3C(F)(F)F)c2)no1` [Compound 89, (S)N-(1-(1-(2,4-bis(trifluoromethyl)phenyl)ethyl)-1H-pyrazol-4-yl)-5-(2-methoxyphenyl)isoxazole-3-carboxamide], under setting [1], the inhibition at 1 µM is under 25%. Further, under setting [2], the IC50 was over 10 µM.

With `O=C(Nc1cnn(Cc2ccc(C(F)(F)F)cc2C(F)(F)F)c1)c1cc(-c2ncccc2Cl)on1` [Compound 31, N-(1-(2,4-bis(trifluoromethyl)benzyl)-1H-pyrazol-4-yl)-5-(3-chloropyridin-2-yl)isoxazole-3-carboxamide], under setting [1], the inhibition at 1 µM is under 25%. Also, the half-inhibitory concentration (IC50) under setting [2] is over 10 µM.

In the case of `Cc1cccc(-c2cc(C(=O)Nc3cnn([C@H](C)c4ccc(C(F)(F)F)cc4C(F)(F)F)c3)no2)n1` [Compound 116, (R)—N-(1-(1-(2,4-bis(trifluoromethyl)phenyl)ethyl)-1H-pyrazol-4-yl)-5-(6-methylpyridin-2-yl)isoxazole-3-carboxamide], the inhibition at 1 µM under setting [1] was in the range of 25 to 50%. Moreover, the IC50 under setting [2] was over 10 µM.

For `O=C(Nc1cnn(Cc2ccc(C(F)(F)F)cc2C(F)(F)F)c1)c1cncc(-c2cccnc2)c1` [Compound 15, N-(1-(2,4-bis(trifluoromethyl)benzyl)-1H-pyrazol-4-yl)-[3,3′-bipyridine]-5-carboxamide], the inhibition at 1 µM under setting [1] was under 25%. In addition, the IC50 under setting [2] was over 10 µM.

With `O=C(Nc1cnn(Cc2c(Cl)cccc2Cl)c1)c1cnc(-c2ccco2)s1` [Compound 147, N-(1-(2,6-dichlorobenzyl)-1H-pyrazol-4-yl)-2-(furan-2-yl)thiazole-5-carboxamide], under setting [1], the inhibition at 1 µM was under 25%. For the same compound, under setting [2], the IC50 was over 10 µM.

Ceapin-A8 [reference compound]: the “Inh. ATF6-Luc @ 1 μM [%]” value (1 μM test compound, thapsigargin-induced ER stress, U2-OS ATF6 luc reporter cells, 8 hr) is “+ (+ refers to <25% inhibition at 1 μM)”. Besides, the IC50 (dose-response 30 μM to 1 nM, thapsigargin-induced ER stress, U2-OS ATF6 luc reporter cells, read-out: IC50 ATF6-Luc reporter) was over 10 µM.

On to `O=C(Nc1cnn(Cc2ccc(C(F)(F)F)cc2C(F)(F)F)c1)c1cc(-c2ccc(F)cc2F)on1` [Compound 16, N-(1-(2,4-bis(trifluoromethyl)benzyl)-1H-pyrazol-4-yl)-5-(2,4-difluorophenyl)isoxazole-3-carboxamide], for which the inhibition at 1 µM under setting [1] is under 25%. In addition, the IC50 under setting [2] was over 10 µM.

In the case of `C[C@@H](c1ccc(C(F)(F)F)cc1C(F)(F)F)n1cc(NC(=O)c2cc(-c3cnccn3)on2)cn1` [Compound 132, (S)—N-(1-(1-(2,4-bis(trifluoromethyl)phenyl)ethyl)-1H-pyrazol-4-yl)-5-(pyrazin-2-yl)isoazole-3-carboxamide], the inhibition at 1 µM under setting [3] was under 25%. Also, under setting [4], the IC50 was over 10 µM.

Consider `Cc1nn(Cc2ccc(C(F)(F)F)cc2C(F)(F)F)cc1NC(=O)/C=C/c1ccco1` [Compound 96, (E)—N-(1-(2,4-bis(trifluoromethyl)benzyl)-3-methyl-1H-pyrazol-4-yl)-3-(furan-2-yl)acrylamide], for which, under setting [1], the inhibition at 1 µM was under 25%. In addition, under setting [2], the half-maximal inhibitory concentration (IC50) was over 10 µM.

Consider `O=C(Nc1cnn(Cc2ccc(C(F)(F)F)cc2C(F)(F)F)c1)c1ccon1` [Compound 23, N-(1-(2,4-bis(trifluoromethyl)benzyl)-1H-pyrazol-4-yl)isoxazole-3-carboxamide], for which the inhibition at 1 µM under setting [1] was under 25%. For the same compound, the IC50 under setting [2] was over 10 µM.

For the compound `Cc1cccc(-c2cc(C(=O)Nc3cnn([C@@H](C)c4ccc(C(F)(F)F)cc4C(F)(F)F)c3)no2)n1` [Compound 117, (S)—N-(1-(1-(2,4-bis(trifluoromethyl)phenyl)ethyl)-1H-pyrazol-4-yl)-5-(6-methylpyridin-2-yl)isoxazole-3-carboxamide], the inhibition at 1 µM under setting [1] is under 25%. In addition, the half-inhibitory concentration (IC50) under setting [2] is over 10 µM.

As to `C[C@@H](c1ccc(C(F)(F)F)cc1C(F)(F)F)n1cc(NC(=O)c2nnc(-c3cnccn3)s2)cn1` [Compound 153], the inhibition at 1 µM under setting [3] is under 25%. Also, the concentration for half-maximal inhibition (IC50) under setting [4] is over 10 µM.

Regarding `O=C(Nc1cnn(Cc2cc(C(F)(F)F)cc(C(F)(F)F)c2)c1)c1cc(-c2ccco2)on1` [Compound 28, N-(1-(3,5-bis(trifluoromethyl)benzyl)-1H-pyrazole-4-yl)-5-(furan-2-yl)isoxazole-3-carboxamide], the inhibition at 1 µM under setting [1] is under 25%. Under setting [2], the IC50 is over 10 µM.

As for `O=C(Nc1cnn(Cc2ccc(C(F)(F)F)cc2C(F)(F)F)c1)c1cncc(-c2ccccc2)c1` [Compound 21, N-(1-(2,4-bis(trifluoromethyl)benzyl)-1H-pyrazol-4-yl)-5-phenylnicotinamide], under setting [1], the inhibition at 1 µM is under 25%. Moreover, the concentration for half-maximal inhibition (IC50) under setting [2] is over 10 µM.

Turning to `C[C@H](c1ccc(C(F)(F)F)cc1C(F)(F)F)n1cc(NC(=O)c2nnc(-c3ccco3)s2)cn1` [Compound 160, (R)—N-(1-(1-(2,4-bis(trifluoromethyl)phenyl)ethyl)-1H-pyrazol-4-yl)-5-(furan-2-yl)-1,3,4-thiadiazole-2-carboxamide], the inhibition at 1 µM under setting [1] is under 25%. The IC50 under setting [2] is over 10 µM.

Regarding `C[C@H](c1ccc(C(F)(F)F)cc1C(F)(F)F)n1cc(NC(=O)c2nnc(-c3ccncn3)s2)cn1` [Compound 156, (R)—N-(1-(1-(2,4-bis(trifluoromethyl)phenyl)ethyl)-1H-pyrazol-4-yl)-5-(pyrimidin-4-yl)-1,3,4-thiadiazole-2-carboxamide], the inhibition at 1 µM under setting [1] fell in the range of 25 to 50%. The IC50 under setting [2] was under 1 µM.

For `O=C(Nc1cnn(Cc2c(Cl)cccc2Cl)c1)c1cc(-c2ccccn2)on1` [Compound 146, N-(1-(2,6-dichlorobenzyl)-1H-pyrazol-4-yl)-5-(pyridin-2-yl)isoxazole-3-carboxamide], the inhibition at 1 µM under setting [1] was under 25%. Also, the IC50 under setting [2] is over 10 µM.

For `Cc1nn(-c2ccc(C(F)(F)F)cc2C(F)(F)F)cc1NC(=O)c1cc(-c2ccco2)on1` [Compound 94, N-(1-(2,4-bis(trifluoromethyl)phenyl)-3-methyl-1H-pyrazol-4-yl)-5-(furan-2-yl)isoxazole-3-carboxamide], the inhibition at 1 µM under setting [1] is under 25%. Further, under setting [2], the 50% inhibitory concentration (IC50) is over 10 µM.

These data come from patent publication US20240124434A1, “ATF6 INHIBITORS AND USES THEREOF” (Altos Labs, Inc., priority 2018, published 2024).
